US7629366B2, “Aminoalcohol derivatives” (Fujisawa Pharmaceutical Co., Ltd., priority 2002, dated 2009)

System: increase in intravesical pressure induced by carbachol in anesthetized dog
Experiment: Effect on the increase in intravesical pressure induced by carbachol in anesthetized dog
Assay type: in vivo
Conditions: 0.032 mg/kg intravenously, 30 minutes before carbachol (1.8 μg/kg); female Beagle dogs under halothane anesthesia
Protocol: Effect on the increase in intravesical pressure induced by carbachol in anesthetized dog
Female Beagle dogs weighing 8.0-15.0 kg were fasted for 24 hours and maintained under halothane anesthesia. A 12F Foley catheter was lubricated with water soluble jelly, inserted into the urethral orifice and advanced approximately 10 cm until the balloon tip was placed well inside the bladder. The balloon was then inflated with 5 ml of room air and catheter slowly withdrawn just part the first resistance that is felt at the bladder neck. Urine was completely drained out through the catheter, and 30 ml of biological saline was infused. The catheter was connected to pressure transducer, and intravesical pressure (IVP) was continuously recorded. The test compound was administered intravenously at 30 minutes before the administration of carbachol (1.8 μg/kg). Percent inhibition of IVP increase by test compound was calculated by dividing IVPa (IVP increase induced by carbachol after test compound administration) by IVPb (IVP increase induced by carbachol just before test compound administration).

With `COc1cc(-c2ccc(C[C@@H](C)NC[C@H](O)c3ccccc3)cc2)ccc1C(=O)O.Cl` [Test Compound (1), 4′-[(2R)-2-[[(2R)-2-Phenyl-2-hydroxyethyl]amino]-propyl]-3-methoxy-1,1′-biphenyl-4-carboxylic acid hydrochloride] the “Percent inhibition of IVP increase” value was 93%.

`Cc1c(C(=O)O)ccc(-c2ccc(CCNC[C@H](O)c3cccc(Cl)c3)cc2)c1C.Cl` [Test Compound (2), 4′-[2-[[(2R)-2-(3-Chlorophenyl)-2-hydroxyethyl]amino]-ethyl]-2,3-dimethyl-1,1′-biphenyl-4-carboxylic acid hydrochloride] was tested, and the “Percent inhibition of IVP increase” value was 91%.

In the case of `Cc1cc(C(=O)O)ccc1-c1ccc(CCNC[C@H](O)c2cccnc2)cc1.Cl.Cl` [Test Compound (3), 4′-[2-[[(2R)-2-Hydroxy-2-(3-pyridyl)ethyl]amino]ethyl]-2-methyl-1,1′-biphenyl-4-carboxylic acid dihydrochloride], the “Percent inhibition of IVP increase” value was 86%.

With `COc1cc(-c2ccc(C[C@@H](C)NC[C@H](O)c3cccnc3)cc2)ccc1C(=O)O.Cl.Cl` [Test Compound (4), 4′-[(2R)-2-[[(2R)-2-Hydroxy-2-(3-pyridyl)ethyl]amino]-propyl]-3-methoxy-1,1′-biphenyl-4-carboxylic acid dihydrochloride] the “Percent inhibition of IVP increase” value was 96%.
